Measured values from the supplement of paper PMC10307832.

How the values were obtained:
Assay in all cases: relative viability (nuclei count vs DMSO), 5 days (fraction); higher = more cells survive
BAM7 + Crizotinib = compound: CCOC1=CC=CC=C1N=NC2=C(NN(C2=O)C3=NC(=CS3)C4=CC=CC=C4)C [BAM7] + C[C@@H](Oc1cc(-c2cnn(C3CCNCC3)c2)cnc1N)c1c(Cl)ccc(F)c1Cl [Crizotinib] (partner 1 µM)
How it was run: (§1)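 Lung cancer cell lines were seeded in 1536-well plates and dosed by pin tool the next day, with either a single drug or a fixed anchor-drug dose combined with five library-drug doses (not always all listed) spaced in √10 steps. Five days later, one step fixed the cells and stained their nuclei (final 0.05% Triton X-100, 1% formaldehyde, 1 ug/ml Hoechst), and nuclei were counted on 4× images. Relative viability is the nuclei count in treated wells divided by the count in vehicle wells, and each value is the median of duplicate plates.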

BAM7 + Pemetrexed = compound: CCOC1=CC=CC=C1N=NC2=C(NN(C2=O)C3=NC(=CS3)C4=CC=CC=C4)C [BAM7] + Nc1nc2[nH]cc(CCc3ccc(C(=O)N[C@@H](CCC(=O)O)C(=O)O)cc3)c2c(=O)[nH]1 [Pemetrexed] (partner 0.2 µM)
How it was run: as §1

[1] = compound: CCn1c(-c2nonc2N)nc2c(C#CC(C)(C)O)ncc(OC[C@H]3CCCNC3)c21 + COc1cccc2cc(-c3nc([C@H]4CC[C@H](C(=O)O)CC4)n4ncnc(N)c34)[nH]c12 [OSI-027] (partner 0.5 µM)
How it was run: as §1

BAM7 + Luminespib = compound: CCOC1=CC=CC=C1N=NC2=C(NN(C2=O)C3=NC(=CS3)C4=CC=CC=C4)C [BAM7] + CCNC(=O)c1noc(-c2cc(C(C)C)c(O)cc2O)c1-c1ccc(CN2CCOCC2)cc1 [Luminespib] (partner 0.01 µM)
How it was run: as §1

Cell Line | relative viability (BAM7 + Crizotinib; first compound 0.5 µM) | relative viability (BAM7 + Crizotinib; first compound 5 µM) | relative viability (BAM7 + Crizotinib; first compound 15.81 µM) | relative viability (BAM7 + Crizotinib; first compound 50 µM) | relative viability (BAM7 + Pemetrexed; first compound 0.5 µM) | relative viability (BAM7 + Pemetrexed; first compound 5 µM) | relative viability (BAM7 + Pemetrexed; first compound 15.81 µM) | relative viability (BAM7 + Pemetrexed; first compound 50 µM) | relative viability ([1]; first compound 0.01 µM) | relative viability ([1]; first compound 0.03162 µM) | relative viability ([1]; first compound 0.1 µM) | relative viability ([1]; first compound 0.3162 µM) | relative viability ([1]; first compound 1 µM) | relative viability (BAM7 + Luminespib; first compound 0.5 µM) | relative viability (BAM7 + Luminespib; first compound 5 µM) | relative viability (BAM7 + Luminespib; first compound 15.81 µM) | relative viability (BAM7 + Luminespib; first compound 50 µM)
201T | 0.957 | 1.02 | 0.876 | 0.883 | 0.299 | 0.324 | 0.327 | 0.313 | 0.675 | 0.644 | 0.625 | 0.719 | 0.754 | 0.984 | 1.11 | 0.793 | 1.01
A549 | 0.85 | 0.861 | 0.745 | 0.781 |  |  |  |  |  |  |  |  |  |  |  |  | 
A-427 | 0.927 | 1 | 0.814 | 0.817 | 1.02 | 0.935 | 0.93 | 1.04 | 0.413 | 0.578 | 0.367 | 0.509 | 0.443 | 0.949 | 0.715 | 0.886 | 1.03
ABC-1 | 1.49 | 1.34 | 0.987 | 1.21 |  |  |  |  | 0.394 | 0.36 | 0.394 | 0.31 | 0.304 | 0.291 | 0.496 | 0.469 | 0.773
BEN | 0.866 | 0.977 | 0.845 | 0.83 | 0.74 | 0.88 | 0.98 | 1 | 0.311 | 0.302 | 0.224 | 0.275 | 0.299 | 0.444 | 0.494 | 0.382 | 0.272
CAL-12T | 0.737 | 0.941 | 0.695 | 0.652 | 1.31 | 1.27 | 0.987 | 1.31 | 0.424 | 0.541 | 0.685 | 0.453 | 0.38 | 0.327 | 0.374 | 0.491 | 0.508
COR-L23 | 0.785 | 0.685 | 0.601 | 0.604 | 0.209 | 0.182 | 0.193 | 0.206 | 0.839 | 0.698 | 0.687 | 0.478 | 0.384 | 0.635 | 0.661 | 0.601 | 0.647
COR-L 105 | 0.917 | 1.02 | 0.787 | 0.718 | 1.02 | 1.31 | 1.01 | 1.15 | 0.664 | 0.802 | 0.59 | 0.52 | 0.499 | 0.668 | 0.892 | 0.706 | 0.734
Calu-6 | 0.883 | 0.903 | 0.783 | 0.675 |  |  |  |  |  |  |  |  |  |  |  |  | 
ChaGo-K-1 | 1.16 | 1.05 | 1.12 | 1.15 | 0.256 | 0.257 | 0.249 | 0.272 | 0.556 | 0.561 | 0.504 | 0.518 | 0.6 | 0.509 | 0.573 | 0.58 | 0.613
EBC-1 | 0.216 | 0.201 | 0.191 | 0.175 |  |  |  |  |  |  |  |  |  |  |  |  | 
EKVX | 1.15 | 0.963 | 0.54 | 0.711 | 0.425 | 0.409 | 0.349 | 0.377 | 0.685 | 0.671 | 0.678 | 0.686 | 0.752 | 0.909 | 0.925 | 0.618 | 0.803
EMC-BAC-2 | 0.849 | 0.852 | 0.74 | 0.857 | 0.439 | 0.458 | 0.474 | 0.452 | 0.341 | 0.379 | 0.354 | 0.369 | 0.336 | 1.13 | 1.28 | 1.12 | 1.15
EPLC-272H | 0.928 | 0.986 | 1.02 | 0.982 | 0.328 | 0.371 | 0.401 | 0.322 | 0.303 | 0.261 | 0.262 | 0.314 | 0.264 | 0.317 |  | 0.317 | 0.507
H3255 | 0.981 | 0.883 | 0.795 | 0.814 | 0.578 | 0.543 | 0.548 | 0.545 | 0.683 | 0.658 | 0.607 | 0.539 | 0.528 | 0.801 | 1.12 | 0.787 | 1.03
HARA | 1.1 | 1.15 | 0.887 | 1 | 0.228 | 0.244 | 0.222 | 0.292 | 0.5 | 0.575 | 0.368 | 0.472 | 0.459 | 0.678 | 0.868 | 0.682 | 0.66
HCC-15 | 0.812 | 0.811 | 0.785 | 0.724 | 0.225 | 0.216 | 0.22 | 0.227 | 0.576 | 0.602 | 0.626 | 0.575 | 0.595 | 0.338 | 0.439 | 0.4 | 0.187
HCC-44 | 0.883 | 0.907 | 0.749 | 0.787 | 0.648 | 0.642 | 0.635 | 0.63 |  |  | 0.484 | 0.372 | 0.499 | 1.38 | 1.07 | 1.03 | 0.957
